Data on 3 compounds can be found in patent US8618154B2, “LXR modulators” (Bristol-Myers Squibb Company, priority 2009, dated 2013).

This assay deals with ABCG1 mRNA in blood cells. As to the kind of experiment: In vivo potency and maximum ABCG1 induction in cynomolgus monkey. To be noted: po; for EC50: Macaca fascicularis, 5 h. How it is done:
Compounds of the present invention were tested for their ability to induce the mRNA for the LXR target gene ABCG1 in blood cells when administered orally to cynomolgus monkeys.
Test compounds were formulated in 0.5% carboxymethyl cellulose (CMC, Sigma) and 2% Tween 80 (Sigma) by trituration. Each treatment group contained three male monkeys, each weighing 3.0-6.0 kg at the start of the study. Test compounds were formulated fresh each morning in vehicle, and animals that had been fasted the previous night were dosed between 7 and 7:30 AM by po gavage. For baseline blood cell mRNA determinations, 1 ml of venous blood was collected in an EDTA dry-coated tube and 1 volume of Dulbecco's Phosphate Buffered Saline without calcium or magnesium and 2 volumes of Nucleic Acid Purification Lysis Solution (Applied Biosystems, Inc.) were added. Samples were frozen at −80° C. prior to RNA isolation and analysis. Test compounds were dosed following the baseline sample collection. At 5 hr post-dose, venous blood was collected and processed as above for RNA determinations. An additional 0.5 ml of blood was also collected and analyzed for compound plasma concentrations.
Frozen samples were allowed to thaw at room temperature, and then placed on ice. Total RNA was isolated on the ABI 6100 using a pre-loaded protocol according to the manufacturer's instructions (ABI Manual #4332809 Rev. B).
qScript cDNA Synthesis Kit from Quanta Biosciences, Inc. was used to generate first-strand cDNA from each total RNA sample. 20 μl Reactions were carried out in 96-well Eppendorf AG twin-tec PCR plates on a MJ Research, Inc. model PTC-200 DNA Engine. Approximately 500 ng of total RNA was used for each reaction. Reactions were composed as follows: 4 μl 5× q-Script Reaction Mix plus 3-5 μl nuclease-free water plus 1 μl q-Script Reverse Transcriptase plus 10-12 μl input RNA. After mixing, reactions were centrifuged at 3750 rpm for 2 minutes at room temperature and run on a “q-Script” protocol (25° C. for 5 minutes, followed by 42° C. for 30 minutes, and then 85° C. for 5 minutes) in a MJ Research thermocycler. Each reaction was diluted with 30 μl of nuclease-free water and used immediately for SYBR-green Q-PCR or stored at −20° C. SYBR-Green Q-PCR reactions were performed as follows. Reaction mixtures for the LXR target gene, ABCG1, and the internal standard normalization gene ribosomal protein L30 were prepared using validated forward/reverse primer sets [ABCG1 (X-Mmul-ABCG1-F1 and X-Mmul-ABCG1-R1); ribosomal protein L30 (SYBR-hL30-F1 and SYBR-hL30-R1)]. […]
The relative amount of ABCG1 mRNA was calculated using the second derivative comparative Ct method (2^−ΔΔCt). Quantification was obtained after normalization to ribosomal protein L30 mRNA. […]

As for `CC(C)(O)c1cn(-c2ccc(-c3cccc(S(C)(=O)=O)c3)cc2)c(C(C)(C)c2ccccc2Cl)n1` [Compound No. 19, Table 1, WO 2007/002563, reference compound], the EC50 (usually the concentration giving half of the maximal effect) came out at 630 ± 168 nM. For the same compound, under “blood cells, 5 hrs post-dose”, the “Maximum ABCG1 Induction (fold vs. baseline ± S.E.)” value worked out at 12.4 ± 1.8 fold vs. baseline.
As to `CC(C)(O)c1cn(-c2ccc(-c3cc(F)c(CO)c(S(C)(=O)=O)c3)cc2F)c(C(C)(C)c2c(Cl)cccc2Cl)n1` [Example 9, 2-(2-(2-(2,6-dichlorophenyl)propan-2-yl)-1-(3,3′-difluoro-4′-(hydroxymethyl)-5′-(methylsulfonyl)biphenyl-4-yl)-1H-imidazol-4-yl)propan-2-ol], the half-maximal effective concentration (EC50) worked out at 11 ± 6 nM.
On the same count and under the same terms, under `CC(C)(O)c1cn(-c2ccc(-c3cc(F)c(CO)c(S(C)(=O)=O)c3)cc2)c(C(C)(C)c2cccc(F)c2Cl)n1` [Example 4, 2-(2-(2-(2-chloro-3-fluorophenyl)propan-2-yl)-1-(3′-fluoro-4′-(hydroxymethyl)-5′-(methylsulfonyl)biphenyl-4-yl)-1H-imidazol-4-yl)propan-2-ol] stands 141 ± 53 nM.
